Reference: patent US11203601B2, “Tricyclic compounds as glycogen synthase kinase 3 (GSK3) inhibitors and uses thereof” (The Broad Institute, Inc., priority 2017, dated 2021)
In brackets after ≈: the same amount, converted by molar mass. Read-outs that look alike come from different tables or passages of the source.

Tests used:
[1] = test system: MDR1; assay: MDR1/MDCK assay (Example 4); format: in vitro ADME; settings: dog, MDCK-MDR1; for Papp A→B at 120 min, 5 μM / Papp B→A at 120 min, 5 μM: pH 7.4, 120 minutes; for efflux ratio at 120 min, 5 μM: (Papp B to A)/(Papp A to B)
Method: The MDR1/MDCK assay is run at Absorption Systems. This assay is used to determine the blood-brain barrier (BBB) penetration potential of a test compound using MDR1-MDCK cell monolayers. Catalog number EA203.
Substrate • Test compound at 5 μM in HBSSg with maximum DMSO concentration not greater than 1%. Assay System • Confluent monolayers of MDR1-MDCK cells, 7 to 11 days old. Assay Conditions • Receiver well with 1% BSA in modified Hanks buffer (HBSSg) • Apical and basolateral side at pH 7.4 • Dose two monolayers in each direction (N=2) • Dose apical side for (A to B) assessment • Dose basolateral side for (B to A) assessment • Sample both apical and basolateral sides at 120 minutes • Determine the concentrations of test compound using a generic LC-MS/MS method with a minimum 4 point calibration curve. Assay QC • The quality of the cell monolayer batch is verified using control compounds before monolayers are released for use • The quality of each monolayer used in the assay is verified by a TEER measurement and by calculating the Papp for a control compound. Solubility (SOL) 1% DMSO in PBS

[2] = target: T1, GSK3β (Homo sapiens (Human), UniProt P49841); assay: GSK3 beta biochemical assay (TR-FRET)
Method: (§6) 1 nM enzyme, 200 nM biotinylated peptide
(§7) 4 μM ATP (GSK3 alpha) or 2 μM ATP (GSK3 beta)
(§8) The reaction volume is 10 μL, and the final percent DMSO is 1%. The total volume of DMSO is therefore 100 nL. It is critical that the percentage of DMSO be controlled and consistent across the plate. […] The High control is with all assay components but no inhibitor, the low control is with all assay components but no enzyme.
(§9) Make 2× detection reagents in Invitrogen TR-FRET detection buffer for final 20 nM Strepavidin-d2, 1 nM Tb^2+-pSer641 antibody (using 20 μl as final volume). 2× detection=40 nM Strepavidin-d2, 2 nM Tb^2+-pSer641 antibody.
(§10) XLFit is used for results which are archived into a database. The data is normalized as a percentage of uninhibited control minus max inhibited controls.

[3] = target: T2, GSK3α (Homo sapiens (Human), UniProt P49840); assay: GSK3 alpha biochemical assay (TR-FRET)
Method: as §6, §7, §8, §9, §10

[4] = target: T1, GSK3β; assay: Mobility shift microfluidics assay; format: biochemical; settings: 4.3 μM ATP, 60 minutes at room temperature
Method: (§11) Reactions were terminated by the addition of 10 mM ethylenediaminetetraacetic acid (EDTA). Substrate and product were separated electrophoretically, and fluorescence intensity of the substrate and product was determined by Labchip EZ Reader II (Caliper Life Sciences). The kinase activity was measured as percent conversion. The reactions were performed in duplicate for each sample. […] The results were analyzed by Genedata Assay Analyzer. The percent inhibition was plotted against the compound concentration, and the IC50 value was determined from the logistic dose-response curve fitting. Values are the average of at least three experiments.

[5] = Plasma stability, mouse; format: in vitro ADME, mouse (CD-1)
Method: (§1) Stability of compound in plasma was tested in duplicate by incubating compound at 5 μM for 5 hours at 37° C. Compound level at 5 hours was compared to level at 0 hours, and percent remaining was calculated. Binding to plasma proteins was tested in duplicate by incubating compound in plasma at 5 μM for 5 hours at 37° C. in the Rapid Equilibrium Dialysis (RED) Device. Compound level in plasma compartment was compared to compound level in buffer compartment to calculate percent bound. Order by selecting Plasma Stability and Plasma Protein Binding in Prometheus, checking boxes for desired species.
(§2) Available species: human, mouse (CD-1), and rat (Sprague-Dawley). Compound requirements: 15 μL of a 10 mM DMSO solution. Incubation time: 5 hours at 37° C. Test Concentration: 5 μM.

[6] = Plasma stability, human; format: in vitro ADME; settings: human plasma, 5 μM, 5 hours at 37° C.
Method: as §1, §2

[7] = Plasma protein binding (RED), mouse; format: in vitro ADME, mouse (CD-1); settings: CD-1, 5 hours at 37° C., read-out: Plasma Protein Binding (Mouse, % bound) (converted)
[8] = Plasma protein binding (RED), human; format: in vitro ADME; settings: 5 hours at 37° C., read-out: Plasma Protein Binding (Human, % bound) (converted)
Method: as §1, §2

[9] = Liver microsomal stability, mouse; format: in vitro ADME, mouse (CD-1); settings: 1 μM, 60 minutes at 37° C.
Method: (§3) Stability of compound in liver microsomes was tested in duplicate by incubating compound at 1 μM for 60 minutes at 37° C. Compound level at 60 minutes was compared to level at 0 minutes, and percent remaining was calculated. Order by selecting Microsomal Stability in Prometheus, checking boxes for desired species.
(§4) Available species: human, mouse (CD-1), and rat (Sprague-Dawley). Compound requirements: 5 μL of a 10 mM DMSO solution. Incubation time: 60 minutes at 37° C. Test Concentration: 1 μM.
(§5) Microsomes with NADPH without compound-matrix interference. Microsomes plus compound without NADPH-non-enzymatic instability.

[10] = Liver microsomal stability, human; format: in vitro ADME; settings: 1 μM, 60 minutes at 37° C.
Method: as §3, §4, §5

[11] = Solubility in PBS; settings: 23 °C, aqueous buffer, thermodynamic from solid
Method: Solubility of compound was tested in triplicate by diluting a 10 mM DMSO solution with PBS. Maximum concentration of compound in solution was 100 μM.
Solubility of compound was tested in triplicate by drying down a 10 mM DMSO solution and then attempting to reconstitute in 100% PBS. Maximum concentration of compound in solution was 500 μM.
Compound requirements (1% DMSO in PBS): 30 μL of a 10 mM DMSO solution. Compound requirements (PBS-only): 60 μL of a 10 mM DMSO solution. Equilibration time: 18 hours at room temperature.

[12] = target: T2, GSK3α; assay: Mobility shift microfluidics assay; format: biochemical
Method: as §11

[13] = mouse plasma, 5 μM, 5 hours at 37° C.
[14] = GSK3β TR-FRET BIOCHEMICAL (TR-FRET) GMean IC50, 2 μM ATP (Km), 100 min at room temperature
[15] = GSK3α TR-FRET BIOCHEMICAL (TR-FRET) GMean IC50, 4 μM ATP (Km), 100 min at room temperature

T2 sequence (P49840 whole entry): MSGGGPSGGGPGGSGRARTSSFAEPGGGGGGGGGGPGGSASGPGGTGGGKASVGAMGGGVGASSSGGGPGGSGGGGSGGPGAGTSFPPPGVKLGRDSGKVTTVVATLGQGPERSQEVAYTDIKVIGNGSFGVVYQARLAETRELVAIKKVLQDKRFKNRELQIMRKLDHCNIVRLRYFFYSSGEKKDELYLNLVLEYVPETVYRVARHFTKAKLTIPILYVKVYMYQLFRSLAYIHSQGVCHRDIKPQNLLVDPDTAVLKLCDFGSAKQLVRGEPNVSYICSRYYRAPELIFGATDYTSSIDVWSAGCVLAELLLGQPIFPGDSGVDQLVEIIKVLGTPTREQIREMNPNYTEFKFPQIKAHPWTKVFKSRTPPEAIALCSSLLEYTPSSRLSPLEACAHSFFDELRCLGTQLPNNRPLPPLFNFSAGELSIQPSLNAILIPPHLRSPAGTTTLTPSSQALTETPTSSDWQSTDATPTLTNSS
T1 sequence (P49841 whole entry): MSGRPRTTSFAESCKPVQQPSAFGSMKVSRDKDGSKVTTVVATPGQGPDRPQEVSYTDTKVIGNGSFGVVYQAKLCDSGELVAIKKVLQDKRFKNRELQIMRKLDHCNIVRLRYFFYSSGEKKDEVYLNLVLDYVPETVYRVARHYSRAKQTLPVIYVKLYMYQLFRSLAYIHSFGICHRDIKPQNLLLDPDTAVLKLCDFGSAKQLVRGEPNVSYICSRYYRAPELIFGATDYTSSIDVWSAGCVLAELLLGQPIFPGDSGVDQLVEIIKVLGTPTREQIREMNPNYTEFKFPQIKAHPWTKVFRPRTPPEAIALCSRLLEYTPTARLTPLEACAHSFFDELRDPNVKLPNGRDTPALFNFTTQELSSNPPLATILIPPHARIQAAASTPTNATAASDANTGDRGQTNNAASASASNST

| Compound | IC50 [2] [nM] | IC50 [3] [nM] | IC50 [4] [nM] | IC50 [12] [nM] | also measured |
| --- | --- | --- | --- | --- | --- |
| CC1(C)CC(=O)C2=C(C1)Nc1ncsc1[C@]2(C)c1ccccc1 [drawing 181] | – | – | – | – | Papp A→B at 120 min, 5 μM [1]: 28.4 ×10⁻⁶ cm/s; Papp B→A at 120 min, 5 μM [1]: 62.8 ×10⁻⁶ cm/s; efflux ratio at 120 min, 5 μM [1]: 2.2 |
| CCC1(c2ccccc2)C2=C(CC(C)(C)CC2=O)Nc2nc(Cl)sc21 (stereo not drawn) [Compound 19] | 4350 | 1990 | – | – | – |
| CC[C@@]1(c2ccccc2)C2=C(CC(C)(C)CC2=O)Nc2n[nH]cc21 [drawing 170] | – | – | 507 | – | – |
| CCC1(c2ccc(C)cc2)C2=C(CC(C)(C)CC2=O)Nc2ncsc21 (stereo not drawn) [Compound 13] | 619 | 187 | – | – | – |
| CCC1(c2ccccc2)C2=C(CC(C)CC2=O)Nc2ncsc21 (stereo not drawn) [Compound 6] | 684 | 194 | – | – | – |
| Cc1c[nH]c(-c2cnc(NCCNc3ccc(C#N)cn3)nc2-c2ccc(Cl)cc2Cl)n1 [drawing 185] | – | – | – | – | Papp A→B at 120 min, 5 μM [1]: 6.5 ×10⁻⁶ cm/s; Papp B→A at 120 min, 5 μM [1]: 64.2 ×10⁻⁶ cm/s |
| CC1(C)CC(=O)C2=C(C1)Nc1n[nH]cc1[C@]2(C)c1ccccc1 [drawing 183] | – | – | – | – | Papp A→B at 120 min, 5 μM [1]: 1.82 ×10⁻⁶ cm/s; Papp B→A at 120 min, 5 μM [1]: 66.1 ×10⁻⁶ cm/s |
| CC[C@@]1(c2cccc(C)c2)C2=C(CC(C)(C)CC2=O)Nc2ncsc21 [drawing 176] | – | – | – | – | Plasma Stability (Mouse, % remaining) [5, 13]: 97.8%; Plasma Stability (Human, % remaining) [6]: 98.9%; fraction unbound at 5 h, 5 μM [7]: 0.045; fraction unbound at 5 h, 5 μM [8]: 0.019; Mouse Liver Microsomal Stability, % remaining [9]: 8.2%; Human Liver Microsomal Stability, % remaining [10]: 0.7%; solubility thermodynamic at 18 h [11]: 75 µM (≈ 26.4 µg/mL) |
| [2H]c1nc2c(s1)C(CC)(c1ccccc1)C1=C(CC(C)(C)CC1=O)N2 (stereo not drawn) [Compound 18] | – | – | – | – | IC50 [2, 14]: 500 nM; IC50 [3, 15]: 118 nM |
| CCC1(c2ccccc2)C2=C(CCCC2=O)Nc2ncsc21 (stereo not drawn) [Compound 11] | > 1670 | 419 | – | – | – |
| CC[C@]1(c2ccccc2)C2=C(CC3(CCCCC3)CC2=O)Nc2ncsc21 | – | – | 1890 | 3660 | – |
| CC1(C)CC(=O)C2=C(C1)Nc1ncsc1[C@@]2(C)c1cccc(F)c1 | – | – | 12500 | 6230 | – |
| CC[C@@]1(c2cccc(F)c2)C2=C(CC(C)(C)CC2=O)Nc2ncsc21 [drawing 174] | – | – | – | – | Plasma Stability (Mouse, % remaining) [5, 13]: 96.0%; Plasma Stability (Human, % remaining) [6]: 99.2%; fraction unbound at 5 h, 5 μM [7]: 0.043; fraction unbound at 5 h, 5 μM [8]: 0.029; Mouse Liver Microsomal Stability, % remaining [9]: 3.9%; Human Liver Microsomal Stability, % remaining [10]: 2.4%; solubility thermodynamic at 18 h [11]: 100 µM (≈ 35.6 µg/mL) |
| CC[C@@]1(c2ccccc2)C2=C(CC(C)(C)CC2=O)Nc2n[nH]cc21 [drawing 184] | – | – | – | – | Papp A→B at 120 min, 5 μM [1]: 1.26 ×10⁻⁶ cm/s; Papp B→A at 120 min, 5 μM [1]: 57.7 ×10⁻⁶ cm/s |
| CCC1(c2ccccc2)C2=C(CC(C(C)C)CC2=O)Nc2ncsc21 (stereo not drawn) [Compound 8] | 927 | 365 | – | – | – |
| CCC1(c2ccccc2)C2=C(CC(C)(C)CC2=O)Nc2ncsc21 (single isomer, unassigned) [Compound 1-E1, 9-Ethyl-6,6-dimethyl-9-phenyl-5,6,7,9-tetrahydrothiazolo[4,5-b]quinolin-8(4H)-one] | – | – | – | – | IC50 [2, 14]: > 5000 nM; IC50 [3, 15]: > 5000 nM |
| CCC1(c2cccc(Br)c2)C2=C(CC(C)(C)CC2=O)Nc2ncsc21 (stereo not drawn) [Compound 14] | 234 | 41 | – | – | – |
| CC1(C)CC(=O)C2=C(C1)Nc1ncsc1C21CCCc2ccccc21 (stereo not drawn) [Compound 16] | > 5000 | > 5000 | – | – | – |
| CC[C@@]1(c2ccccc2)C2=C(CC3(CCCCC3)CC2=O)Nc2ncsc21 | – | – | 447 | 155 | – |
| CC1(C)CC(=O)C2=C(C1)Nc1ncsc1C21CCCCc2ccccc21 (stereo not drawn) [Compound 17] | > 5000 | > 5000 | – | – | – |
| CC[C@@]1(c2cccc(Cl)c2)C2=C(CC(C)(C)CC2=O)Nc2ncsc21 | – | – | – | – | Plasma Stability (Mouse, % remaining) [5, 13]: 98.1%; Plasma Stability (Human, % remaining) [6]: 98.7%; fraction unbound at 5 h, 5 μM [7]: 0.023; fraction unbound at 5 h, 5 μM [8]: 0.018; Mouse Liver Microsomal Stability, % remaining [9]: 11.1%; Human Liver Microsomal Stability, % remaining [10]: 0.0%; solubility thermodynamic at 18 h [11]: 37 µM (≈ 13.8 µg/mL) |
| CC1(C)CC(=O)C2=C(C1)Nc1ncsc1[C@]2(C)c1ccccc1 [drawing 153] | – | – | 384 | 238 | – |

| Compound | IC50 [2] [nM] | IC50 [3] [nM] | IC50 [4] [nM] | IC50 [12] [nM] | also measured |
| --- | --- | --- | --- | --- | --- |
| CC[C@@]1(c2cccc(OC)c2)C2=C(CC(C)(C)CC2=O)Nc2ncsc21 (single isomer, unassigned) | – | – | 110 | 24 | – |
| CC1(C)CC(=O)C2=C(C1)Nc1ncsc1[C@@]2(C)c1ccccc1 | – | – | 28600 | 18500 | – |
| CC[C@]1(c2cccc(OC)c2)C2=C(CC(C)(C)CC2=O)Nc2ncsc21 | – | – | 10500 | 10600 | – |
| CC[C@]1(c2ccccc2)C2=C(CC(C)(C)CC2=O)Nc2ncsc21 | – | – | > 30000 | > 30000 | – |
| CC1(C)CC(=O)C2=C(C1)Nc1ncsc1[C@]2(C)c1cccc(F)c1 | – | – | 455 | 203 | – |
| CCC1(c2ccccc2)C2=C(Nc3ncsc31)C(C)(C)CCC2=O (stereo not drawn) [Compound 4] | 627 | 174 | – | – | – |
| CC[C@@]1(c2cccc(Cl)c2)C2=C(CC(C)(C)CC2=O)Nc2ncsc21 (single isomer, unassigned) | – | – | 1180 | 293 | – |
| CC[C@]1(c2cccc(Cl)c2)C2=C(CC(C)(C)CC2=O)Nc2ncsc21 (single isomer, unassigned) | – | – | > 30000 | > 30000 | – |
| CC1(C)CC(=O)C2=C(C1)Nc1n[nH]cc1[C@]2(C)c1ccccc1 [drawing 178] | – | – | – | – | Plasma Stability (Mouse, % remaining) [5]: 96.6%; Plasma Stability (Human, % remaining) [6]: 100%; Mouse Liver Microsomal Stability, % remaining [9]: 100%; Human Liver Microsomal Stability, % remaining [10]: 100%; solubility thermodynamic at 18 h [11]: > 500 µM |
| CCC1(c2ccccc2)C2=C(CC(C)(C)CC2=O)Nc2nc(C)sc21 (stereo not drawn) [Compound 15] | > 5000 | > 5000 | – | – | – |
| CCC1(c2ccccc2)C2=C(CC(CC(C)C)CC2=O)Nc2ncsc21 (stereo not drawn) [Compound 10] | 644 | 189 | – | – | – |
| CCC1(c2ccccc2)C2=C(CCC(C)(C)C2=O)Nc2ncsc21 (stereo not drawn) [Compound 3] | 951 | 254 | – | – | – |
| CCC1CC(=O)C2=C(C1)Nc1ncsc1C2(CC)c1ccccc1 (stereo not drawn) [Compound 7] | 592 | 171 | – | – | – |
| CCC1(c2ccccc2)C2=C(Nc3ncsc31)C(C)CC(C)C2=O (stereo not drawn) [Compound 2] | 353 | 130 | – | – | – |
| CC[C@@]1(c2ccccc2)C2=C(CC(C)(C)CC2=O)Nc2ncsc21 [drawing 157] | – | – | 65 | 14 | – |
| CC[C@@]1(c2cccc(C)c2)C2=C(CC(C)(C)CC2=O)Nc2ncsc21 [drawing 163] | – | – | 245 | 69 | – |
| CCC1(c2ccccc2)C2=C(CC3(CCCC3)CC2=O)Nc2ncsc21 (stereo not drawn) [Compound 5] | 366 | 80 | – | – | – |
| CCCC1CC(=O)C2=C(C1)Nc1ncsc1C2(CC)c1ccccc1 (stereo not drawn) [Compound 9] | 418 | 184 | – | – | – |
| CC[C@@]1(c2cccc(F)c2)C2=C(CC(C)(C)CC2=O)Nc2ncsc21 [drawing 159] | – | – | 2270 | 599 | – |
| CC[C@@]1(c2ccccc2)C2=C(CC(C)(C)CC2=O)Nc2ncsc21 [drawing 182] | – | – | – | – | Papp A→B at 120 min, 5 μM [1]: 24.2 ×10⁻⁶ cm/s; Papp B→A at 120 min, 5 μM [1]: 62.1 ×10⁻⁶ cm/s; efflux ratio at 120 min, 5 μM [1]: 2.6 |
| CC[C@]1(c2cccc(F)c2)C2=C(CC(C)(C)CC2=O)Nc2ncsc21 (single isomer, unassigned) | – | – | > 30000 | > 30000 | – |
